From patent US20260193227A1, “THERAPEUTIC COMPOUNDS AND METHODS” (UNIVERSITY OF IOWA RESEARCH FOUNDATION, priority 2022, published 2026)

Assays:
[1] = tested on: RAD52 OB mutant (K102A/K103A/K169A/R173A); experiment: FRET-based inhibition of ssDNA binding, outer binding defective RAD52 mutant; parameters: species or system human; settings: for fold lower IC50 (increased efficiency) against OB mutant compared to IB mutant: Z56: wild type and IB mutant within the fitting error
Procedure: Proteins: The 6×His-tagged human RAD52 proteins (wild type and mutants) and untagged human RPA were expressed and purified as previously described in (Hengel S R, eLife. 2016; 5; Grimme J M, et al., Nucleic Acids Res. 2010; 38(9):2917-30; and Henricksen L A, et al., The Journal of biological chemistry. 1994; 269(15):11121-32). RPA and RAD52 protein concentrations were determined by measuring absorbance at 280 nm using extinction coefficients of 88,830 M^−1 cm^−1 and 40,470 M^−1 cm^−1, respectively.
FRET-based DNA binding and inhibition assays: FRET-based that monitor the RAD52-ssDNA, RPA-ssDNA and RAD52-RPA-ssDNA binding were carried out as previously described (Hengel S R, eLife. 2016; 5; Grimme J M, et al., Nucleic Acids Res. 2010; 38(9):2917-30; and Grimme J M, Spies M. FRET-based assays to monitor DNA binding and annealing by Rad52 recombination mediator protein. Methods in molecular biology (Clifton, NJ). 2011; 745:463-83) using Cary Eclipse Spectrofluorimeter (Agilent) at 25° C., in 5 mm quartz cuvettes, and in buffer containing 30 mM Tris-Acetate (pH 7.5) and 1 mM DTT. Cy3 dye was excited at 530 nm and its emission was monitored at 565 nm. Emission of Cy5 acceptor fluorophore excited through the energy transfer from Cy3 donor is monitored at 660 nm simultaneously with emission of Cy3 dye. Both the excitation and the emission slits were set to 10 nm. All experiments were carried out using 1 nM (molecules) Cy3-dT30-Cy5 ssDNA. The optimal concentrations of the RAD52 (6 nM) and RPA (1 nM) proteins were selected by titrating the respective protein into 1 nM Cy3-dT30-Cy5 solution, and chosen based on the largest separation of the FRET values corresponding to the protein bound and free DNA.
The inhibition of the RAD52-ssDNA, RPA-ssDNA and RAD52-RPA-ssDNA complexes was evaluated by titrating each compound to the respective complex, measuring Cy3 and Cy5 fluorescence, and calculating FRET as previously described (Hengel, S. R., et al., eLife, 5).
Spectral properties of many compounds overlapped with the Cy3 and Cy5 fluorescence. To correct the calculated FRET values for the compound signal, the fluorogenic compounds were titrated into buffer and into solution of 1 nM Cy3-dT30-Cy5. For all tested compounds, the change in the signal in the Cy3 and Cy5 channels with and without Cy3/Cy5-labeled DNA present was the same. […] To account for the dye fluorescence, for each compound concentration, the apparent change in FRET of the ssDNA in the presence the compound was subtracted from the respective FRET signal of the RAD52-ssDNA, RPA-ssDNA or RAD52-ssDNA-RPA complex at the same inhibitor concentration. The IC50 values were calculated by fitting the corrected FRET data to the four-parameter dose response model using GraphPad Prism. […]

EUFA423F HA cells = experiment: CellTiter-Glo cell viability, BRCA2-complemented cells; type: cell-based, human; settings: yes/no
Excerpt: Cell lines: EUFA423F cells that are derived from a Fanconi Anemia patient with complementation group D1 and have biallelic mutations (7691 insAT and 9900 insA) in BRCA2 that result in two different truncated forms of BRCA2 (Howlett N G, et al., Science (New York, NY). 2002; 297(5581):606-9) and its counterpart complemented with expression vector for full-length BRCA2 (EUFA HA) were a generous gift from Dr. Simon Powell, Molecular Biology Program, Radiation Oncology, Sloan-Kettering Cancer Center, New York, NY).
Cell proliferation assay: Selective toxicity of the compounds towards human BRCA2 deficient cells was tested in EUFA423F and its complement EUFA423F HA using CellTiter-Glo® Luminescent Cell Viability Assay (Promega, Madison, WI). The cell lines were maintained in DMEM (Gibco/ThermoFisher Scientific, Waltham, MA) supplemented with 10% FBS and 10 mM HEPES (Gibco/ThermoFisher Scientific, Waltham, MA). EUFA423F HA cells were routinely supplemented with G418 in order to maintain the BRCA2 expression plasmid. Both cell lines were seeded in sterile tissue culture treated, white opaque 384-well plates (Perkin Elmer Inc., Waltham, MA) 3000 cells/well for EUFA423F HA and 2500 cells/well for EUFA423F) and allowed to adhere for 24 hours. Compounds dissolved in DMSO were added in the concentration range of 0-100 μM. Controls were treated with equivalent DMSO volumes. The cells were treated with compounds for 72 hours (to ensure that all cells experienced at least two S-phases). Post treatment, the cells were washed, treated with the CellTiter-Glo® reagent was added and the plate was analyzed as using a Gen5 (ver2.1) luminosity plate reader. The luminescence that reports on ATP generation by the surviving cells was normalized for the DMSO treated control as 100%. The normalized luminescence (average±standard deviation for at least three independent measurements obtained with different cell passages) was plotted in GraphPad Prism as a function of compound concentration. Clonogenic Survival: EUFA423F and EUFA423F HA cells were seeded in a 96 well plate. Compounds dissolved in DMSO were added to final concentrations of 0, 50, and 100 μM for the compound of Example 8 and the compound of Example 1, and 0, 5, and 10 μM for the compounds of Examples 2-7. The cells were treated with compounds for 72 hours. Post treatment, cell cultures were harvested by collecting all non-adherent cells in the well, trypsinization of all adherent cells, combining, pelleting and then resuspending in fresh media. Cultures treated with DMSO only were subsequently counted using a hemocytometer and plated at a density of 2000, 200 and 20 cells per well in 6-well culture plates, equal volumes of cultures were plated each inhibitor concentration. Each treatment and cell density conditions for both cell lines were plated in triplicate. After expanding the colonies for a period of 8 days, cultures were fixed with a solution of 70% ethanol and crystal violet for clonogenic survival analysis. Pictures of individual wells were taken using GelCount (Version 1.3.0.4) by Oxford Optronix (Abingdon UK). A colony had to contain at least 50 cells to be counted. The number of surviving colonies following treatment are presented as a percentage of number of colonies in the experiment where the cells were treated with DMSO only.

Structure (SMILES)	inhibition of ssDNA binding to OB mutant RAD52 [1]	fold lower IC50 (increased efficiency) against OB mutant compared to IB mutant [1] [fold]	toxicity towards EUFA423 HA (BRCA2-complemented cells) (EUFA423F HA cells)
O=C(Cn1cccc([N+](=O)[O-])c1=O)c1c[nH]c2ccccc12 [Example 1]	able to inhibit	6	yes
COc1ccccc1NS(=O)(=O)c1cc(C(=O)O)ccc1C [Example 8]	able to inhibit	6	no
